Converted amounts (≈) assume the structure as drawn. Where two headings read alike, the source gives them in different places.
Tests used:
[1] = test system: Candida albicans (SC5314); experiment: Broth microdilution MIC (Example 1); format: cell-based; settings: in the presence of 1 μg/mL fluconazole; for MIC: Candida albicans, SC5314, read-out: MIC against Candida albicans (SC5314)
Protocol: (§1) MICs/minimum effective concentrations (MECs) were determined for each of the novel analogs against the three major human fungal pathogens, A. fumigatus, C. neoformans, and C. albicans. […] Thus, analogs of FK506 and FK520 can tolerate up to 100-fold reduction in antifungal activity and still be considered for in vivo testing. For C. neoformans, MICs were the most uniform and ranged from 0.2 to 2 μg/mL, which is between 4- and 40-fold reduced for antifungal activity.
(§2) In vitro antifungal activities of FK506, FK520, and analogs were assessed in RPMI 1640 (Sigma-Aldrich) for all strains tested. MICs/minimum effective concentrations (MECs) for each drug were measured using modified Clinical and Laboratory Standards Institute (CLSI) M38-A2 and M27-A3 standard in vitro antifungal susceptibility protocols. Broth microdilution assays for MIC/MEC assessment were performed as described previously (see, Juvvadi P R, et al., 2019, Nat Commun 10:4275). All antifungal assays with C. neoformans were performed at 37° C. Antifungal susceptibility testing for C. albicans was performed in the presence of a uniform 1 μg/mL concentration of fluconazole to sensitize the organism to calcineurin inhibition.

[2] = test system: Cryptococcus neoformans (H99); experiment: Broth microdilution MIC (Example 1); format: cell-based; settings: for MIC: Cryptococcus neoformans, read-out: MIC against Cryptococcus neoformans (H99)
Protocol: as §1, §2

[3] = test system: Aspergillus fumigatus; experiment: Broth microdilution MIC/MEC (Example 1); format: cell-based; settings: for minimal effective concentration: Aspergillus fumigatus, strain Af293, read-out: MEC against Aspergillus fumigatus (Af293)
Protocol: as §1
To assess the antifungal activity against other human fungal pathogens, JH-FK-05 was selected to test against a panel of pathogenic molds and drug-resistant A. fumigatus strains (Table 4). JH-FK-05 registered MECs as low as 1 μg/mL for some of these highly recalcitrant species, such as Mucor circinelloides, Rhizopus oryzae, and pan azole-resistant A. fumigatus (strain F14946).
as §2

[4] = test system: IL-2 expression in primary mouse CD4+ T cells (mammalian calcineurin); experiment: In vitro immunosuppressive activity, IL-2 expression (Example 3); format: cell-based; settings: 72 h
Protocol: Modifications at the C-22 position reduce inhibition of mammalian calcineurin signaling Mammalian calcineurin inhibition was then assessed and found to be reduced for these FK520 analogs. The inhibition of mammalian calcineurin was assessed by measuring the reduction of IL-2 expression from primary mouse CD4^+ T cells cultured in the presence of FK506, FK520, or an analog. Calcineurin activity is required for T cell activation and cytokine production, and IL-2 production serves as an effective measure of mammalian calcineurin activity. After culturing mouse CD4′ T cells for 72 h, IL-2 expression was analyzed by flow cytometry to evaluate the immunosuppressive activity of the analogs. […] However, compound concentrations that permit high IL-2 expression are less likely to result in cell death.
Spleen and lymph nodes from C57BL/6 mice were collected and homogenized through a 40-μm filter. Pan-CD4^+ T cells were enriched using the MagniSort Mouse CD4 T Cell Enrichment Kit (Invitrogen). Thereafter, CD4^+CD25^−CD62L^hiCD44^lo naïve CD4^+ T cells were FACS-sorted using a MoFlo Astrios cell sorter (Beckman Coulter). Naïve CD4^+ T cells were cultured in Iscove's Modified Dulbecco's Medium supplemented with 10% fetal bovine serum (FBS), penicillin (10 U/mL), streptomycin (10 μg/mL), glutamine (2 mM), gentamicin (50 μg/mL), and β-mercaptoethanol (55 μM). Cells were cultured for 72 h on anti-hamster IgG-coated plates with hamster anti-CD3s antibodies, hamster anti-CD28 antibodies, neutralizing anti-IL-4 antibodies, recombinant IL-12 (10 ng/mL), and recombinant IL-2 (50 U/mL). During this culture, cells were incubated with serially diluted drugs suspended in DMSO.

[5] = test system: C. neoformans; experiment: MIC assay (Example 4); format: cell-based, Cryptococcus neoformans; settings: 37° C.; for MIC: Cryptococcus neoformans, read-out: C. neoformans MIC
Protocol: Both JH-FK-10 and JH-FK-11 maintained in vitro antifungal activity against C. neoformans with MICs of 0.8 and 1.6 μg/mL, respectively (Table 11).
In vitro antifungal activity of FK506, FK520, and analogs was assessed in RPMI 1640 (Sigma-Aldrich) for all strains tested. Minimum inhibitory concentrations (MIC) for each drug were measured using modified Clinical and Laboratory Standards Institute (CLSI) M38-A2 and M27-A3 standard in vitro antifungal susceptibility protocols. Broth microdilution assays for MIC assessment were performed as previously described. All antifungal assays with C. neoformans were performed at 37° C.

[6] = test system: IL-2 expression in primary murine CD4+ T cells; experiment: In vitro immunosuppressive activity, IL-2 expression (Example 4); format: cell-based, mouse; settings: Mus musculus, CD4+ T
Protocol: Spleen and lymph nodes were collected from C57BL/6 mice and homogenized through a 40 μm filter. Pan-CD4^+ T cells were enriched using MagniSort Mouse CD4 T cell Kit (eBioscience) according to the manufacturer's protocol. Thereafter, CD4+CD25−CD44lo CD62Lhi naïve T cells were FACS-sorted. The naïve CD4+ T cells were grown in Iscove's Modified Dulbecco's Medium (IMDM) supplemented with glutamine, penicillin, streptomycin, gentamicin, 2-mercaptoethanol, and 10% FBS. Cells were then cultured on anti-hamster IgG coated plates in the presence of hamster anti-CD3 epsilon and anti-CD28 antibodies (BD Biosciences), neutralizing anti-IL-4 antibody (eBioscience), recombinant IL-12 (10 ng/mL), and recombinant IL-2 (50 U/mL) for 72 h. During this period, cells were grown in the presence of 2× serially diluted FK506, FK520, or analog suspended in DMSO for 72 h. During the last 4 h of culture, phorbol 12-myristate 13-acetate (PMA; Sigma), ionomycin (Sigma), and GolgiStop (BD Biosciences) were added to the culture to facilitate detection of intracellular cytokines via flow cytometry.
Live cells were stained with FITC-conjugated anti-CD4 antibody (eBioscience) and Fixable Viability Dye eFluor 506 (eBioscience) on ice, followed by fixation and permeabilization using the Foxp3 Transcription Factor Staining Kit (eBioscience). Intracellular staining was performed at room temperature using PE-conjugated anti-IL-2 antibody (eBioscience), followed by analysis with a BD LSRFortessa X-20 flow cytometer.

Row | SMILES | MIC [1] | MIC ([2]; 37° C.) | minimal effective concentration [3] | IC50 [4] | MIC ([5]; Table 13) | IC50 ([6]; Table 12) | also measured
1 | C=CCC1C=C(C)CC(C)CC(OC)C2OC(O)(C(=O)C(=O)N3CCCCC3C(=O)OC(C(C)=CC3CCC(O)C(OC)C3)C(C)C(O)CC1=O)C(C)CC2OC (stereo not shown) [FK506, reference compound] | 0.02 µg/mL | 0.05 µg/mL (≈ 0.0622 µM) | 0.016 µg/mL | 90 pM | 0.05 µg/mL (≈ 0.0622 µM) | 110 pM | MIC ([5]; Table 11): 0.05 µg/mL (≈ 0.0622 µM); MIC ([5]; Table 12): 0.05 µg/mL (≈ 0.0622 µM)
2 | C=CC[C@@H]1/C=C(\C)C[C@H](C)C[C@H](OC)[C@H]2O[C@@](O)(C(=O)C(=O)N3CCCC[C@H]3C(=O)O[C@H](/C(C)=C/[C@@H]3CC[C@@H](O)[C@H](OC)C3)[C@H](C)[C@@H](O)C/C1=N/NC(=O)CC)[C@H](C)C[C@@H]2OC [JH-FK-02] | 1.6 µg/mL | 2 µg/mL (≈ 2.29 µM) | 2 µg/mL | – | – | – | –
3 | CC[C@@H]1/C=C(\C)C[C@H](C)C[C@H](OC)[C@H]2O[C@@](O)(C(=O)C(=O)N3CCCC[C@H]3C(=O)O[C@H](/C(C)=C/C3CC[C@@H](O)[C@H](OC)C3)[C@H](C)[C@@H](O)C/C1=N/NC(=O)OC)[C@H](C)C[C@@H]2OC (stereo partly shown) [JH-FK-08] | – | – | – | 42600 pM | – | – | –
4 | CC[C@@H]1/C=C(\C)C[C@H](C)C[C@H](OC)[C@H]2O[C@@](O)(C(=O)C(=O)N3CCCC[C@H]3C(=O)O[C@H](/C(C)=C/[C@@H]3CC[C@@H](O)[C@H](OC)C3)[C@H](C)[C@@H](O)CC1=O)[C@H](C)C[C@@H]2OC [FK520, reference compound] | – | – | – | 300 pM | – | 480 pM | MIC against Candida albicans (SC5314) [1]: 0.02 µg/mL; MIC against Cryptococcus neoformans (H99) ([2]; 37° C.): 0.05 µg/mL (≈ 0.0631 µM); antifungal activity (MIC/MEC range) ([2]; range over C. neoformans, C. albicans and A. fumigatus): 0.016 to 0.05 µg/mL; C. neoformans MIC ([5]; Table 11): 0.05 µg/mL; C. neoformans MIC ([5]; Table 12): 0.05 µg/mL; C. neoformans MIC ([5]; Table 13): 0.05 µg/mL
5 | CC[C@@H]1/C=C(\C)C[C@H](C)C[C@H](OC)[C@H]2O[C@@](O)(C(=O)C(=O)N3CCCC[C@H]3C(=O)O[C@H](/C(C)=C/[C@@H]3CC[C@@H](O)[C@H](OC)C3)[C@H](C)[C@@H](O)C/C1=N/NC(C)=O)[C@H](C)C[C@@H]2OC [JH-FK-05] | 0.8 µg/mL | 1 µg/mL (≈ 1.18 µM) | 2 µg/mL | – | 1 µg/mL (≈ 1.18 µM) | – | fold reduction of antifungal activity compared to FK506 ([2]; C. neoformans): 20 fold; broad-spectrum antifungal activity / MIC ranking ([2]; C. neoformans, C. albicans, A. fumigatus): maintained high levels of broad-spectrum antifungal activity across the three species; MIC/MEC ([3]; echinocandin-resistant strain EMFR-S678P): 2 µg/mL (≈ 2.36 µM); IC50 ([6]; Table 13): 20000 pM
